Consider four molecules from ChEMBL document CHEMBL1141445, “Rhizochalins C and D from the sponge Rhizochalina incrustata. A rare threo-sphingolipid and a facile method for determination of the carbonyl position in alpha,omega-bifunctionalized ketosphingolipids” (2007).

The experiment deals with Nakaseomyces glabratus. The experiment in a line: Antifungal activity against fluconazole-resistant Candida glabrata. The experiment is classed as functional. To be noted: read-out: ED50 (the source's name).
In the case of `CC1[C@@H](CO)O[C@@H](O[C@H](CCCCCCCC(=O)CCCCCCCCCCCCCC[C@@H](O)[C@@H](C)N)[C@@H](N)CO)[C@H](O)[C@H]1O` (some centres undefined) [OCEANAPISIDE], the EC50 amounted to 40 µM.

For the molecule `C[C@@H](N)[C@H](O)CCCCCCCC(=O)CCCCCCCCCCCCCC[C@@H](O[C@@H]1O[C@H](CO)[C@H](O)[C@H](O)[C@H]1O)[C@H](N)CO` [RHIZOCHALIN C], the EC50 is over 150 µM.

As for `C[C@@H](N)[C@H](O)CCCCCCCCC(=O)CCCCCCCCCCCCCC[C@@H](O[C@@H]1O[C@H](CO)[C@H](O)[C@H](O)[C@H]1O)[C@@H](C)N` [RHIZOCHALIN D], the EC50 is over 150 µM.

Regarding `C[C@@H](N)[C@H](O)CCCCCCCC(=O)CCCCCCCCCCCCCC[C@@H](O[C@@H]1O[C@H](CO)[C@H](O)[C@H](O)[C@H]1O)[C@@H](C)N` [RHIZOCHALIN], the EC50 turned out to be 40 µM.
